For one compound, IC50, inhibition and ΔTm results are on record in patent US20260306527A1, “PRMT INHIBITOR COMPOUNDS AND THE USES THEREOF” (Purdue Research Foundation, priority 2023, published 2026).

One may read the pIC50 as the negative decadic logarithm of the IC50, by convention in mol/L. As a reminder, the inhibition is the drop in the measured response relative to a control, in per cent. The ΔTm is the shift of the melting midpoint relative to a reference.

Test [1] has as its target T1, PRMT3 (Homo sapiens, UniProt O60678). Briefly: selectivity of YD1113/YD1290 on PRMT panel, PRMT3. It is filed as biochemical. In short, it runs like this:
(§1)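 Radioactivity-based PRMT activity assay run by an external provider; YD1113 profiled across the PRMT panel at 10 μM.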
Target sequence in this assay (O60678 whole entry, species assumed): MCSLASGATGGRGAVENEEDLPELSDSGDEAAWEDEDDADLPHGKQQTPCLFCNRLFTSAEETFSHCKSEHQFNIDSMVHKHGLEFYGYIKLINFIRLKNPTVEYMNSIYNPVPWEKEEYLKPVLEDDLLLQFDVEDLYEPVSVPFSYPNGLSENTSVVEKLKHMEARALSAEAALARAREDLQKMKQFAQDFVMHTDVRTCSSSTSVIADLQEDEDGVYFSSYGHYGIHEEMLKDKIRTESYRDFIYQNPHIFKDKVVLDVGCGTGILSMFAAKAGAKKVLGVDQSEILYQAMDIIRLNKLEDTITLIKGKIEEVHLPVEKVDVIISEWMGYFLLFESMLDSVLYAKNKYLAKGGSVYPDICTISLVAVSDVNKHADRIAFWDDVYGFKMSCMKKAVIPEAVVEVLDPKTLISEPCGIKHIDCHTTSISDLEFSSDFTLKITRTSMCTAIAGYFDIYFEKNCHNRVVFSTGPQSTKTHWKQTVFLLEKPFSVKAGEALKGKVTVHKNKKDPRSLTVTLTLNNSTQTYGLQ

In test [2] the target is T2, PRMT1 (Homo sapiens, UniProt Q99873).
T2 construct: made in house
Briefly: selectivity of YD1113/YD1290 on PRMT panel, PRMT1. The format is biochemical. The following applies: 10 μM; PRMT panel. In short, it runs like this:
as §1

The target in the next test is T3, PRMT4 (Homo sapiens, UniProt Q86X55).
T3 construct: PRMT4 (residues 140-480) was cloned into the pFBOH-MHL vector; tag of the pFBOH-MHL vector (poly-His implied by Ni-NTA purification; not described); made in house; host or cells: Sf9 insect cells
Briefly: thermal shift assay PRMT4. The format is binding. The following applies: 100 μM compound, 20 μM protein. Here is the method: (§2) The fluorescence-based thermal shift assay was performed using a StepOne plus qPCR instrument (Thermal Fisher). For PRMT1, 10 μM of protein was mixed with 2× sypro orange and DMSO, or 100 μM SAM, or 100 μM YD1113, or 100 μM YD1290 in a buffer consisting of 2.5 mM HEPES (pH=7.0), 25 mM NaCl, 25 μM EDTA, 50 μM TCEP, 0.01% Triton X-100. For PRMT3, 20 μM of protein was mixed with 2× sypro orange and DMSO, or 100 μM SAM, or 100 μM YD1113, or 100 μM YD1290 in a buffer consisting of 20 mM Tris (pH=7.5), 0.01% Triton X-100. For PRMT4, 20 μM of protein was mixed with 2× sypro orange and DMSO, or 100 μM SAM, or 100 μM YD1113, or 100 μM YD1290 in a buffer consisting of 20 mM bicine (pH=8.5), 0.01% Triton X-100. All samples were heated from 25° C. to 75° C. at an increased rate of 0.5° C. per minute. Protein denaturation was monitored by the increased fluorescence signal of Sypro Orange, which captures exposed hydrophobic residues during thermal unfolding. The recorded curves were analyzed by the software StepOne plus and plotted in GraphPad Prism 8 software.
(§3) Next, the thermal shift assay (TSA) was conducted as an orthogonal method to examine the effects of YD1290 on the thermal stability of PRMT1, 3, and 4 (Figure S1).

Test [3] addresses T2, PRMT1. Briefly: SAHH-coupled fluorescence assay, inhibition of PRMT1. It is filed as biochemical. In short, it runs like this:
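PRMT1 (0.1 μM) was run with 10 μM AdoMet, 5 μM SAHH and 10 μM ThioGlo4 in 2.5 mM HEPES pH 7.0, 25 mM NaCl, 25 μM EDTA, 50 μM TCEP and 0.01% Triton X-100. Fluorescence (ex 400/em 465 nm) was monitored for 15 min. Assays were done in duplicate.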

In another test the target is PRMT6 (Homo sapiens, UniProt Q96LA8). Briefly: radioactive assay (Reaction Biology Corp.), inhibition of PRMT6. The format is biochemical. The method, then:
Next, the inhibition activity of the library was investigated for five PRMT members from type I PRMTs.
The PRMT 4, 6 and 8 methylation assays were performed by Reaction Biology corp.

The target of test [4] is T1, PRMT3. Briefly: SAHH-coupled fluorescence assay, inhibition of PRMT3. On the set-up: PRMT3 (residues 211-531) was cloned into the pET28a-MHL expression vector; tag of the pET28a-MHL vector (not described); made in house; host or cells: Escherichia coli BL21(DE3). It is filed as biochemical. In short, it runs like this: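 Coupled SAHH/ThioGlo4 fluorescence read-out (ex 380 nm, em 505 nm) of PRMT3 (0.25 μM) methylation with 30 μM AdoMet and 5 μM SAHH. Buffer was 20 mM Tris pH 7.5 with 0.01% Triton X-100. Run in duplicate.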
Target sequence in this assay (O60678 211-531): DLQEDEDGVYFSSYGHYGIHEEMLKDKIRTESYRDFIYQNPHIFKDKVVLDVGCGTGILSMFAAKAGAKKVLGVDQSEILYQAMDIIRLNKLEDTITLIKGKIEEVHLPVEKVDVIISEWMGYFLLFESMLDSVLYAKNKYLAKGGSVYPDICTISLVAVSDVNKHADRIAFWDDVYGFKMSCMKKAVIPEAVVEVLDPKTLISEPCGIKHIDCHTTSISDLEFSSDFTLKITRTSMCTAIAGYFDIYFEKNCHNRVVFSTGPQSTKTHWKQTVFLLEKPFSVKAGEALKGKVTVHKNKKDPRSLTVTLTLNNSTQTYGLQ

In test [5] the target is T1, PRMT3. Description: thermal shift assay PRMT3. The format is binding. Further details: PRMT3 (residues 211-531) was cloned into the pET28a-MHL expression vector; tag of the pET28a-MHL vector (not described); made in house; host or cells: Escherichia coli BL21(DE3). The following applies: 100 μM compound, 20 μM protein. The method, then: as §2, §3
Target sequence in this assay (O60678 211-531): as above

pIC50: −log10 of the molar value.

T2 sequence (Q99873 whole entry, species assumed): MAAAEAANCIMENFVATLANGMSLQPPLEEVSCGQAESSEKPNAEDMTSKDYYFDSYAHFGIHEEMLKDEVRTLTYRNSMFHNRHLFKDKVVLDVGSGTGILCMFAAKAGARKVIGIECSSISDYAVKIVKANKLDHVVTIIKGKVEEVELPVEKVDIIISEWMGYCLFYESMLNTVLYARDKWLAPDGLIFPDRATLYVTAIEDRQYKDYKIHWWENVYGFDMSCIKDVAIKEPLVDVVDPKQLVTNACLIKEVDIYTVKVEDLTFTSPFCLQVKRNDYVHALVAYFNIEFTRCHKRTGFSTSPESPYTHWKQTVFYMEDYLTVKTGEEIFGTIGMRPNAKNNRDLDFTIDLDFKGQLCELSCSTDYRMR
T3 sequence (Q86X55 140-480): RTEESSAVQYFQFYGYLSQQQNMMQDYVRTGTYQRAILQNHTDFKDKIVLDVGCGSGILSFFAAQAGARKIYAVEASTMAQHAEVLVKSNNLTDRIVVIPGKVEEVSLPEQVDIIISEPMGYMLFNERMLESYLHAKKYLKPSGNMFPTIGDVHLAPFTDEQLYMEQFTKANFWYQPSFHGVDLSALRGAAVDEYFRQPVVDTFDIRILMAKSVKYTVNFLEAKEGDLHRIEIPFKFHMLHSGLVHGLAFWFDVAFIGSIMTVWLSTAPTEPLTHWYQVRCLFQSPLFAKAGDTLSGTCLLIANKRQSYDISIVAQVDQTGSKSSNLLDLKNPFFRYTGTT
Sequence of PRMT6 (Q96LA8 whole entry, species assumed): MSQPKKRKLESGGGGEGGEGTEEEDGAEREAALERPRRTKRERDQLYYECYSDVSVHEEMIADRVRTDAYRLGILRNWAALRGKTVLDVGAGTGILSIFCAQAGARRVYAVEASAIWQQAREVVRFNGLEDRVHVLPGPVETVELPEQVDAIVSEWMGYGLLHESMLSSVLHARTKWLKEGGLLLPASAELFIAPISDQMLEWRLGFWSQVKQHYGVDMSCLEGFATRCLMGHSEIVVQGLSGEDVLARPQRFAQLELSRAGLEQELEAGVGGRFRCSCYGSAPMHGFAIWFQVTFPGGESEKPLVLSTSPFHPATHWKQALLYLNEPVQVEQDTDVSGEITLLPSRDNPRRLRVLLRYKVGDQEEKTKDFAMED

On to `Nc1ncnc2c1ncn2[C@@H]1O[C@H](CSCCNC(=O)NCc2ccccc2)[C@@H](O)[C@H]1O` [Compound 7a, 1-(2-((((2S,3S,4R,5R)-5-(6-amino-9H-purin-9-yl)-3,4-dihydroxytetrahydrofuran-2-yl)methyl)thio)ethyl)-3-benzylurea], for which the pIC50 against PRMT3 [1] is 6.49. The inhibition at 10 µM at PRMT1 [2] is < 35%; against PRMT1 [3], 30%; at PRMT6, 89%; at PRMT3 [4], 80%. Also, the values for the ΔTm at 100 µM on PRMT4 and on PRMT3 [5] were 2.6 °C and 5.8 °C, respectively.
